Where two headings read alike, the source gives them in different places. Each block holds one compound with its values, some of them ahead of it.
Experiments:
[1] = test system: phosphorylation of CDK1 at Thr14 in HCC1806 cells; assay: Cell lysate AlphaLISA assay measuring inhibition of phosphorylation of CDK1 Thr14; assay type: cell-based; details: read-out: Cellular IC50
In short: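 HCC1806 cells seeded overnight, then treated 4 h at 37 °C, 5% CO2 with compounds in DMSO; washed and lysed, lysates frozen overnight at −80 °C. CDK1 Thr14 phosphorylation read by AlphaLISA SureFire Ultra; data normalized to DMSO (0% inhibition) and 3 μM reference compound to give IC50.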

[2] = biological target: T1, PKMYT1 (Homo sapiens, UniProt Q99640); assay: ADP-Glo PKMYT1 ATP-depletion assay; details: 50 nM PKMYT1, 13.3 nM CDK1, read-out: Biochemical IC50
T1 construct: PKMYT1 (93 kD, full length, N-terminal GST tag from Signal Chem); GST (N); purchased Signal Chem
T1 sequence (Q99640 1-499): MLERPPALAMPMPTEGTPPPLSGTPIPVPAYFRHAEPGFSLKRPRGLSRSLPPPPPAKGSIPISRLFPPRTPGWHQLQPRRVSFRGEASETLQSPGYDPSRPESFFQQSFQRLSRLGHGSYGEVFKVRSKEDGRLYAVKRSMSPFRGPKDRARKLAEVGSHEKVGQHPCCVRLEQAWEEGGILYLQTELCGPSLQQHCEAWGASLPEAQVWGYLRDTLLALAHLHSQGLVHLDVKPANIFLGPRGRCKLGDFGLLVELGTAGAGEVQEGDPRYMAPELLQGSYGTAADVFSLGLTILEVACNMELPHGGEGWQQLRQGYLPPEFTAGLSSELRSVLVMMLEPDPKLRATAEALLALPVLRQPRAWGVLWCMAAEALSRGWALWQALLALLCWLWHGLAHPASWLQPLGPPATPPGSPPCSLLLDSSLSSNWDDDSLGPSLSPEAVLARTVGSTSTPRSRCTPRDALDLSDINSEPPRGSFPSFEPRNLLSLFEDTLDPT
In short: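 Full-length N-terminal GST-tagged PKMYT1 (50 nM) with GST-CDK1 (13.3 nM) as substrate and 88 µM ATP, in Hepes buffer with MgCl2, MnCl2, DTT and BSA; DMSO <1%. Incubated 120 min at RT. ADP formed was quantified by ADP-Glo luminescence and used to derive biochemical IC50.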

SMILES: Cc1ccc(O)c(C)c1-c1c(N)c(C(N)=O)nc2ccccc12 [Compound 22, 3-Amino-4-(3-hydroxy-2,6-dimethylphenyl)quinoline-2-carboxamide]
IC50 ([1]; 4 hours): 1000 to 5000 nM
IC50 [2]: 50 to 500 nM

SMILES: Cc1ccc(O)c(C)c1-c1c(N)c(C(N)=O)nc2c(C)cccc12 [Compound 27, 3-Amino-4-(3-hydroxy-2,6-dimethylphenyl)-8-methylquinoline-2-carboxamide]
IC50 ([1]; Homo sapiens, HCC1806, 4 h): 1000 to 5000 nM
IC50 [2]: 500 to 1000 nM

SMILES: Cc1ccc(O)c(C)c1-c1c(N)c(C(N)=O)nc2c(C(F)(F)F)cccc12 [Compound 28, 3-Amino-4-(3-hydroxy-2,6-dimethylphenyl)-8-(trifluoromethyl)quinoline-2-carboxamide]
IC50 ([1]; Homo sapiens, HCC1806, 4 h): 50 to 500 nM
IC50 [2]: 50 to 500 nM

SMILES: Cc1ccc(O)c(C)c1-c1c(N)c(C(N)=O)nc2ccc(C(F)(F)F)cc12 [Compound 34]
IC50 ([1]; Homo sapiens, HCC1806, 4 h): 1000 to 5000 nM
IC50 [2]: 1000 to 5000 nM

SMILES: Cc1c(O)cccc1-c1c(N)c(C(N)=O)nc2cc(Cl)ccc12 [Compound 37, 3-Amino-7-chloro-4-(3-hydroxy-2-methylphenyl)quinoline-2-carboxamide]
IC50 ([1]; Homo sapiens, HCC1806, 4 h): 1000 to 5000 nM
IC50 [2]: 1000 to 5000 nM

SMILES: Cc1ccc(O)c(C)c1-c1c(N)c(C(N)=O)nc2cc(Cl)ccc12 [Compound 42, 3-Amino-7-chloro-4-(3-hydroxy-2,6-dimethylphenyl)quinoline-2-carboxamide]
IC50 ([1]; Homo sapiens, HCC1806, 4 h): 1000 to 5000 nM
IC50 [2]: 500 to 1000 nM

SMILES: Cc1ccc(O)c(C)c1-c1c(N)c(C(N)=O)nc2cc(F)ccc12 [Compound 43, 3-Amino-7-fluoro-4-(3-hydroxy-2,6-dimethylphenyl)quinoline-2-carboxamide]
IC50 ([1]; Homo sapiens, HCC1806, 4 h): 1000 to 5000 nM
IC50 [2]: 50 to 500 nM

SMILES: Cc1ccc2c(-c3cccc(O)c3C)c(N)c(C(N)=O)nc2c1 [Compound 46, 3-Amino-4-(3-hydroxy-2-methylphenyl)-7-methylquinoline-2-carboxamide]
IC50 ([1]; Homo sapiens, HCC1806, 4 h): ≥ 5000 nM
IC50 [2]: 1000 to 5000 nM

SMILES: COc1ccc2c(-c3c(C)ccc(O)c3C)c(N)c(C(N)=O)nc2c1 [Compound 47, 3-Amino-4-(3-hydroxy-2,6-dimethylphenyl)-7-methoxyquinoline-2-carboxamide]
IC50 ([1]; Homo sapiens, HCC1806, 4 h): 1000 to 5000 nM
IC50 [2]: 1000 to 5000 nM

SMILES: Cc1c(O)cccc1-c1cc(C(N)=O)nc2c(C)ccc(C)c12 [Compound 52, 4-(3-Hydroxy-2-methylphenyl)-5,8-dimethylquinoline-2-carboxamide]
IC50 ([1]; Homo sapiens, HCC1806, 4 h): ≥ 5000 nM
IC50 [2]: ≥ 5000 nM

SMILES: Cc1c(O)cccc1-c1c(N)c(C(N)=O)nc2cccc(F)c12 [Compound 56, 3-Amino-5-fluoro-4-(3-hydroxy-2-methyl-phenyl)quinoline-2-carboxamide]
IC50 ([1]; Homo sapiens, HCC1806, 4 h): 500 to 1000 nM
IC50 [2]: 50 to 500 nM

SMILES: Cc1c(O)cccc1-c1c(N)c(C(N)=O)nc2cc(C(F)(F)F)ccc12 [Compound 59, 3-Amino-4-(3-hydroxy-2-methylphenyl)-7-(trifluoromethyl) quinoline-2-carboxamide]
IC50 ([1]; 4 hours): 1000 to 5000 nM
IC50 [2]: ≥ 5000 nM

SMILES: Cc1c(O)cccc1-c1c(N)c(C(N)=O)cc2cccnc12 [Compound 61, 7-Amino-8-(3-hydroxy-2-methylphenyl)quinoline-6-carboxamide]
IC50 ([1]; Homo sapiens, HCC1806, 4 h): 50 to 500 nM
IC50 [2]: < 50 nM

SMILES: Cc1c(O)cccc1-c1c(N)c(C(N)=O)cc2ncccc12 [Compound 67, 6-Amino-5-(3-hydroxy-2-methylphenyl)quinoline-7-carboxamide]
IC50 ([1]; 4 hours): 1000 to 5000 nM
IC50 [2]: 50 to 500 nM

SMILES: Cc1ccc2[nH]ncc2c1-c1cc(C(N)=O)cc2nccnc12 [Compound 70, 8-(5-Methyl-1H-indazol-4-yl)quinoxaline-6-carboxamide]
IC50 ([1]; Homo sapiens, HCC1806, 4 h): ≥ 5000 nM
IC50 [2]: ≥ 5000 nM

SMILES: Cc1n[nH]c2cccc(-c3cc(C(N)=O)cc4nccnc34)c12 [Compound 72, 8-(3-Methyl-1H-indazol-4-yl)quinoxaline-6-carboxamide]
IC50 ([1]; Homo sapiens, HCC1806, 4 h): ≥ 5000 nM
IC50 [2]: ≥ 5000 nM

SMILES: Cc1c(O)cccc1-c1c(N)c(C(N)=O)cc2nccnc12 [Compound 73, 7-Amino-8-(3-hydroxy-2-methyl-phenyl)quinoxaline-6-carboxamide]
IC50 ([1]; Homo sapiens, HCC1806, 4 h): 50 to 500 nM
IC50 [2]: < 50 nM

SMILES: Cc1ccc(O)c(C)c1-c1cc(C(N)=O)cc2nccnc12 [Compound 74, 8-(3-Hydroxy-2,6-dimethyl-phenyl)quinoxaline-6-carboxamide]
IC50 ([1]; Homo sapiens, HCC1806, 4 h): ≥ 5000 nM
IC50 [2]: 500 to 1000 nM

SMILES: NC(=O)c1cc(-c2cccc3[nH]ncc23)c2nccnc2c1 [Compound 75, 8-(1H-indazol-4-yl)quinoxaline-6-carboxamide]
IC50 ([1]; Homo sapiens, HCC1806, 4 h): ≥ 5000 nM
IC50 [2]: ≥ 5000 nM

SMILES: Cc1ccc(O)c(C)c1-c1c(N)c(C(N)=O)cc2nccnc12 [Compound 82, 7-Amino-8-(3-hydroxy-2,6-dimethylphenyl)quinoxaline-6-carboxamide]
IC50 ([1]; Homo sapiens, HCC1806, 4 h): 50 to 500 nM
IC50 [2]: < 50 nM

SMILES: Cc1ccc(O)c(C)c1-c1c(N)c(C(N)=O)cc2nc(C)c(C)nc12 [Compound 94, 7-Amino-8-(3-hydroxy-2,6-dimethylphenyl)-2,3-dimethylquinoxaline-6-carboxamide]
IC50 ([1]; Homo sapiens, HCC1806, 4 h): 50 to 500 nM
IC50 [2]: < 50 nM

SMILES: Cc1ccc(O)c(C)c1-c1c(N)c(C(N)=O)cc2nc(C(F)(F)F)cnc12 [Compound 101, 7-Amino-8-(3-hydroxy-2,6-dimethylphenyl)-3-(trifluoromethyl)quinoxaline-6-carboxamide]
IC50 ([1]; Homo sapiens, HCC1806, 4 h): 50 to 500 nM
IC50 [2]: 50 to 500 nM

SMILES: COc1cncc(-c2c(N)c(C(N)=O)cc3nccnc23)c1C [Compound 107, 7-amino-8-(5-methoxy-4-methylpyridin-3-yl)quinoxaline-6-carboxamide]
IC50 ([1]; Homo sapiens, HCC1806, 4 h): ≥ 5000 nM
IC50 [2]: 50 to 500 nM

SMILES: NC(=O)c1cc2nccnc2c(-c2cccc3[nH]ncc23)c1N [Compound 108, 7-Amino-8-(1H-indazol-4-yl)quinoxaline-6-carboxamide]
IC50 ([1]; Homo sapiens, HCC1806, 4 h): 1000 to 5000 nM
IC50 [2]: 50 to 500 nM

SMILES: Cc1c(O)cncc1-c1c(N)c(C(N)=O)cc2nccnc12 [Compound 113, 7-amino-8-(5-hydroxy-4-methylpyridin-3-yl)quinoxaline-6-carboxamide]
IC50 ([1]; Homo sapiens, HCC1806, 4 h): 1000 to 5000 nM
IC50 [2]: 50 to 500 nM

Second part, the compound after the results:

IC50 ([1]; Homo sapiens, HCC1806, 4 h): 1000 to 5000 nM
IC50 [2]: 50 to 500 nM
SMILES: Cc1ccc(O)c(C)c1-c1c(N)c(C(N)=O)nc2c(F)cccc12 [Compound 25]

IC50 ([1]; Homo sapiens, HCC1806, 4 h): 1000 to 5000 nM
IC50 [2]: 50 to 500 nM
SMILES: Cc1ccc(O)c(C)c1-c1c(N)c(C(N)=O)nc2ccc(Cl)cc12 [Compound 36, 3-Amino-6-chloro-4-(3-hydroxy-2,6-dimethyl-phenyl) quinoline-2-carboxamide]

IC50 ([1]; Homo sapiens, HCC1806, 4 h): 50 to 500 nM
IC50 [2]: 50 to 500 nM
SMILES: COc1ccc2nc(C(N)=O)c(N)c(-c3c(C)ccc(O)c3C)c2c1 [Compound 48, 3-Amino-4-(3-hydroxy-2,6-dimethylphenyl)-6-methoxyquinoline-2-carboxamide]

IC50 ([1]; Homo sapiens, HCC1806, 4 h): 1000 to 5000 nM
IC50 [2]: 50 to 500 nM
SMILES: Cc1ccc2nc(C(N)=O)c(N)c(-c3cccc(O)c3C)c2c1 [Compound 55, 3-Amino-4-(3-hydroxy-2-methylphenyl)-6-methylquinoline-2-carboxamide]

IC50 ([1]; Homo sapiens, HCC1806, 4 h): ≥ 5000 nM
IC50 [2]: 500 to 1000 nM
SMILES: Cc1ccc(O)c(C)c1-c1cc(C(N)=O)cc2cccnc12 [Compound 60, 8-(3-Hydroxy-2,6-dimethyl-phenyl)quinoline-6-carboxamide]

IC50 ([1]; Homo sapiens, HCC1806, 4 h): 50 to 500 nM
IC50 [2]: 50 to 500 nM
SMILES: Cc1ccc(O)c(C)c1-c1c(N)c(C(N)=O)cc2cccnc12 [Compound 64, 7-Amino-8-(3-hydroxy-2,6-dimethylphenyl)quinoline-6-carboxamide]

IC50 ([1]; Homo sapiens, HCC1806, 4 h): 1000 to 5000 nM
IC50 [2]: 50 to 500 nM
SMILES: Cc1ccc2[nH]ncc2c1-c1c(N)c(C(N)=O)cc2nccnc12 [Compound 77, 7-Amino-8-(5-methyl-1H-indazol-4-yl)quinoxaline-6-carboxamide]

IC50 ([1]; Homo sapiens, HCC1806, 4 h): ≥ 5000 nM
IC50 [2]: 1000 to 5000 nM
SMILES: Cc1c(O)cccc1-c1cc(C(N)=O)cc2nccnc12 [Compound 80, 8-(3-Hydroxy-2-methylphenyl)quinoxaline-6-carboxamide]

IC50 ([1]; Homo sapiens, HCC1806, 4 h): 50 to 500 nM
IC50 [2]: 50 to 500 nM
SMILES: Cc1nc2cc(C(N)=O)c(N)c(-c3cccc(O)c3C)c2nc1C [Compound 91, 7-Amino-8-(3-hydroxy-2-methylphenyl)-2,3-dimethylquinoxaline-6-carboxamide]

IC50 ([1]; 4 hours): 1000 to 5000 nM
IC50 [2]: 50 to 500 nM
SMILES: Cc1c(O)cccc1-c1c(N)c(C(N)=O)cc2nc(C(F)(F)F)cnc12 [Compound 96, 7-Amino-8-(3-hydroxy-2-methylphenyl)-3-(trifluoromethyl)quinoxaline-6-carboxamide]

IC50 ([1]; Homo sapiens, HCC1806, 4 h): 50 to 500 nM
IC50 [2]: < 50 nM
SMILES: NC(=O)c1cc2nccnc2c(-c2cccc(O)c2Cl)c1N [Compound 97, 7-Amino-8-(2-chloro-3-hydroxyphenyl)quinoxaline-6-carboxamide]

IC50 ([1]; Homo sapiens, HCC1806, 4 h): ≥ 5000 nM
IC50 [2]: 50 to 500 nM
SMILES: Cc1n[nH]c2cccc(-c3c(N)c(C(N)=O)cc4nccnc34)c12 [Compound 109, 7-Amino-8-(3-methyl-1H-indazol-4-yl)quinoxaline-6-carboxamide]

IC50 ([1]; 4 hours): ≥ 5000 nM
IC50 [2]: ≥ 5000 nM
SMILES: Cc1c(-c2c(N)c(C(N)=O)cc3nccnc23)ccnc1O [Compound 110, 7-Amino-8-(2-hydroxy-3-methylpyridin-4-yl)quinoxaline-6-carboxamide]

— patent US20260176270A1 (Exelixis, Inc., priority 2022, published 2026)
